Key:
[1] = in vitro; details: human, Caco-2, Papp (cm/s) a-b × 10^−6
Description: Validation of the Caco-2 transport experiments required consideration of three parameters, i.e., firstly, to determine the cytotoxic concentrations of synthetic aspalathin, secondly, the concentration of aspalathin required to ensure HPLC detection in the basolateral compartment, and finally, to assess whether the transport of aspalathin is concentration dependent.
Cells were cultured at 37 °C and 5% CO2 in 95% humidified air in Eagle’s Minimum Essential Medium (EMEM) containing sodium […] pyruvate, supplemented with 2 mM L-glutamine, 1% non-essential amino acids and 10% heat inactivated FBS. Cell cultures were split when 70%–80% confluent, using trypsin/ethylenediaminetetraacetic acid (EDTA). The culture medium, pre-warmed to 37 °C, was refreshed every 2–3 days. Cells were seeded at 1 × 10^4 cells/cm^2 and a sub-cultivation ratio of 1:3 was routinely used. Cells were seeded with the addition of 1% penicillin/streptomycin mixture (10,000 units/mL potassium penicillin and 10,000 µg/mL streptomycin sulphate) at 4 × 10^4 cells/cm^2 onto 0.4 µm polycarbonate 6-well inserts with an insert area of 4.52 cm^2. Cells were used for transport experiments when TEER values across wells were >300 Ω, typically 21–23 days post confluence. Only passages 50–60 were used to prevent phenotypic drift.
The cell monolayers were equilibrated briefly with transport buffer, pH 6.0 (HBSS with 2-(N-morpholino) ethanesulphonic acid (MES)) on the apical side and pH 7.4 (HBSS with HEPES) on the basolateral side, to remove traces of the culture media. Following this, transport buffers were added for 30 min prior to the addition of treatment (inhibitors were added during this step when required, as well as during the subsequent treatment incubation step). After equilibration, the plates containing transport medium were incubated for 30 min at 37 °C at 5% CO2 in 95% humidified air and the TEER value of the monolayer determined. […] For basolateral-to-apical compartment studies, 2.4 mL of treatment at the same concentrations in HBSS (pH 7.4), was added to the basolateral compartment.
To assess whether aspalathin was co-transported with glucose, its transport (100 µM) at both high (20.5 mM) and low (5.5 mM) glucose concentrations, mimicking the intestinal lumen glucose concentrations pre- and post-meals, was monitored. This was followed by experiments performed in the presence and absence of SGLT1 (100 µM phloridzin), GLUT2 (100 µM phloretin) and efflux, PgP (100 µM verapamil) inhibitors.
Samples (1.2 mL) were withdrawn from the basolateral or the apical compartment to measure the concentration of aspalathin uptake and efflux, respectively at 0, 0.5, 1, 1.5, and 2 h under sink conditions (the sample aliquot replaced with equal volume of relevant transport buffer). Sample aliquots (350 µL) were frozen in liquid nitrogen after the addition of ascorbic acid (35 µL of 10% solution) and stored at −65 °C until HPLC analysis. Results were corrected for dilution and expressed as cumulative transport (% of initial dose) as a function of time. Papp (cm/s) for bi-directional transport studies was calculated as previously described. Transport of other major flavonoids in the matrices, i.e., nothofagin, the 3-deoxy analogue of aspalathin and its flavone derivatives, orientin and isoorientin, were also determined.
Lucifer yellow (final concentration 0.1 mM) was used as a membrane integrity marker and co-incubated with the compounds and extracts.
HPLC-DAD analysis of samples from the apical and basolateral compartments was performed in duplicate on an Agilent 1200 system as previously described. Basolateral and apical samples taken after 2 h with pure aspalathin were also analysed using LC-MS (parameters described in [42]) to determine whether aspalathin metabolites were formed in the Caco-2 model.
All experiments were performed in triplicate and the data expressed as mean ± SD, unless otherwise indicated.

[2] = Acute mouse study, metabolite identification in blood and urine by LC-MS/MS; assay type: in vivo; details: oral 50 mg/kg aspalathin, urine over 8 h, tentative identification by LC-MS/MS
Description: An acute mouse study was performed under ethical approval from the Ethics Committee for Research on Animals (ECRA) of the South African Medical Research Council (Ref:07/13). Three 8-week old male C57.BKS mice, obtained from the Primate Unit of the South African Medical Research Council (Tygerberg, South Africa), were housed individually in polycarbonate cages with wired lids and kept in a controlled environment of 23–24 °C, 50% humidity, and a 12 h light/dark cycle. Prior to the study, urine was collected from the fasting mice overnight in a metabolic cage. Baseline fasted blood was collected via tail snip into a heparin tube, snap frozen in liquid nitrogen, and stored at −80 °C. Each mouse received a single dose of synthetic aspalathin (50 mg/kg body weight) dissolved in phosphate-buffered saline (PBS) (5 mg/mL) via orogastric gavage. Blood samples were collected and handled as described for fasting at time 0 (pre-gavage), and 1, 2, 4, 6, and 8 h post-gavage. All the samples were collected into the same heparin tube and kept on ice during the experiment. Urine was collected over the 8-h post-gavage monitoring period and the samples were stored at −80 °C until analysis.
(§1) The frozen whole blood samples, as well as the samples incubated with microsomes and controls, were thawed, extracted by protein precipitation using 0.1% formic acid (FA) in acetonitrile, centrifuged and filtered through 0.22 µm polyvinylidene difluoride (PVDF) filters (Merck Millipore, Frankfurter Straße, Darmstadt, Germany). Frozen whole urine samples were thawed and diluted 5 times in 0.1% aqueous FA. Samples were analysed by LC-MS/MS on an Agilent 1200 Rapid Resolution HPLC system (600 bar, Agilent Technologies) coupled to a 4000 QTRAP® (AB Sciex, Framingham, MA, USA) equipped with a Turbo V™ […]. Filtered samples (10 μL), stored on a sample tray maintained at 8 °C, were injected on a Gemini C6-Phenyl column (150 × 2.0 mm, 3 µm particles) (Phenomenex, Santa Clara, CA, USA) at 40 °C. […]

[3] = tested on: mouse liver microsomes; assay: In vitro incubation of aspalathin in mouse liver microsomes and phosphate buffer; assay type: in vitro ADME
Description: Synthetic aspalathin (10 µM) was incubated at 37 °C in a solution containing 1 mg/mL microsomes (male Mouse BALB/c, Xenotech, Kansas city, KS, USA), magnesium chloride (5 mM) and nicotinamide adenine dinucleotide phosphate (NADPH) (1 mM) in phosphate buffer (100 mM, pH 7.4), for 1 h while shaking. A control containing all the sample constituents (not incubated), another containing no NADPH, and another containing only the compound in phosphate buffer were also included and handled similarly to the test sample.
as §1

## O=c1cc(-c2ccc(O)c(O)c2)oc2cc(O)c([C@@H]3O[C@H](CO)[C@@H](O)[C@H](O)[C@H]3O)c(O)c12 [Isoorientin]
[1]
  Papp A→B at 2 h: 1.69 ± 0.2 ×10⁻⁶ cm/s

## O=c1cc(-c2ccc(O)c(O)c2)oc2c([C@@H]3O[C@H](CO)[C@@H](O)[C@H](O)[C@H]3O)c(O)cc(O)c12 [Orientin]
[1]
  Papp A→B at 2 h: 1.92 ± 0.2 ×10⁻⁶ cm/s

## Eriodictyol-C-glucoside [M1]
[2]
  metabolite present in mouse urine (relative concentrations): identified
[3]; aspalathin 10 µM, 1 mg/mL microsomes, NADPH, 37 °C, 1 h
  product identified after incubation of aspalathin in mouse liver microsomes: identified
[3]; phosphate buffer pH 7.4
  product identified after incubation of aspalathin in phosphate buffer: identified

— publication PMC6154319, “Intestinal Transport Characteristics and Metabolism of C-Glucosyl Dihydrochalcone, Aspalathin” (Molecules : A Journal of Synthetic Chemistry and Natural …, 2017)
